# Data published in PubChem BioAssay AID1963430 (Molecular Pharmacology Branch, DTP, NCI, 2024).
# System: 521955-158-R2-J5-PDC complex spheroid growth, % test/control
# Assay: Anticancer human tumor 521955-158-R2-J5-PDC patient-derived pancreatic carcinoma cell line growth inhibition [Asc]
# Details: for IC50: curve of first compound; for viability, T/C: stronger effect = lower value
# Outline: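 Spheroid model: tumor line + HUVEC + hMSC. Single agents and combinations; top conc. at/near clinical Cmax (10 microM if undetermined), half-log dilutions. DMSO stocks at 800-fold test concentration.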
# [1] = second compound 0.1 µM, first compound 0.0316 µM
# [2] = second compound 0.1 µM, first compound 0.1 µM
# [3] = second compound 0.1 µM, first compound 0.316 µM
# [4] = second compound 0.1 µM, first compound 1 µM
# [5] = second compound 0.316 µM, first compound 0.0316 µM
# [6] = second compound 0.316 µM, first compound 0.1 µM
# [7] = second compound 0.316 µM, first compound 0.316 µM
# [8] = second compound 0.316 µM, first compound 1 µM
# [9] = second compound 1 µM, first compound 0.0316 µM
# [10] = second compound 1 µM, first compound 0.1 µM
# [11] = second compound 1 µM, first compound 0.316 µM
# [12] = second compound 1 µM, first compound 1 µM
# [13] = second compound 3.16 µM, first compound 0.0316 µM
# [14] = second compound 3.16 µM, first compound 0.1 µM
# [15] = second compound 3.16 µM, first compound 0.316 µM
# [16] = second compound 3.16 µM, first compound 1 µM
# [17] = second compound 10 µM, first compound 0.0316 µM
# [18] = second compound 10 µM, first compound 0.1 µM
# [19] = second compound 10 µM, first compound 0.316 µM
# [20] = second compound 10 µM, first compound 1 µM
# [21] = second compound 0.1 µM, first compound 0.00316 µM
# [22] = second compound 0.1 µM, first compound 0.01 µM
# [23] = second compound 0.316 µM, first compound 0.00316 µM
# [24] = second compound 0.316 µM, first compound 0.01 µM
# [25] = second compound 1 µM, first compound 0.00316 µM
# [26] = second compound 1 µM, first compound 0.01 µM
# [27] = second compound 3.16 µM, first compound 0.00316 µM
# [28] = second compound 3.16 µM, first compound 0.01 µM
# [29] = second compound 10 µM, first compound 0.00316 µM
# [30] = second compound 10 µM, first compound 0.01 µM
# 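Further: spheroids exposed to agents for 7 days before readout.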
# 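Wherever viability, T/C is given: 100% = DMSO vehicle control viability.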
smiles,measurement,setting,value
C=CC(=O)N1CCN(c2nc(=O)n(-c3c(C)ccnc3C(C)C)c3nc(-c4c(O)cccc4F)c(F)cc23)C(C)C1 (stereo not given) + Cc1c(S(C)(=O)=O)c(-c2cc(F)cc(N3CCN(c4ccc(NS(=O)(=O)c5ccc(NC(CCN6CCC(C(=O)OCCCP(=O)(O)O)CC6)CSc6ccccc6)c(S(=O)(=O)C(F)(F)F)c5)cc4)CC3)c2)c(-c2ccc(Cl)cc2)n1C(C)C,IC50,second compound 0.1 µM,> 10000 nM
same,IC50,second compound 0.316 µM,> 10000 nM
same,IC50,second compound 1 µM,> 10000 nM
same,IC50,second compound 3.16 µM,> 10000 nM
same,IC50,second compound 10 µM,> 10000 nM
same,"viability, T/C",[1],77.7%
same,"viability, T/C",[2],87.5%
same,"viability, T/C",[3],64.9%
same,"viability, T/C",[4],94.5%
same,"viability, T/C","second compound 0.1 µM, first compound 3.16 µM",107%
same,"viability, T/C","second compound 0.1 µM, first compound 10 µM",77.5%
same,"viability, T/C",[5],80.6%
same,"viability, T/C",[6],72.2%
same,"viability, T/C",[7],84.8%
same,"viability, T/C",[8],112%
same,"viability, T/C","second compound 0.316 µM, first compound 3.16 µM",111%
same,"viability, T/C","second compound 0.316 µM, first compound 10 µM",83.7%
same,"viability, T/C",[9],69.5%
same,"viability, T/C",[10],72.3%
same,"viability, T/C",[11],85.8%
same,"viability, T/C",[12],95.7%
same,"viability, T/C","second compound 1 µM, first compound 3.16 µM",71.8%
same,"viability, T/C","second compound 1 µM, first compound 10 µM",81.7%
same,"viability, T/C",[13],73.7%
same,"viability, T/C",[14],97.8%
same,"viability, T/C",[15],83.5%
same,"viability, T/C",[16],86.5%
same,"viability, T/C","second compound 3.16 µM, first compound 3.16 µM",103%
same,"viability, T/C","second compound 3.16 µM, first compound 10 µM",80.3%
same,"viability, T/C",[17],151%
same,"viability, T/C",[18],176%
same,"viability, T/C",[19],167%
same,"viability, T/C",[20],112%
same,"viability, T/C","second compound 10 µM, first compound 3.16 µM",123%
same,"viability, T/C","second compound 10 µM, first compound 10 µM",98.4%
COc1c(OCCCN2CCOCC2)ccc2c3n(c(=NC(=O)c4cnc(N)nc4)nc12)CCN3 + Cc1c(S(C)(=O)=O)c(-c2cc(F)cc(N3CCN(c4ccc(NS(=O)(=O)c5ccc(NC(CCN6CCC(C(=O)OCCCP(=O)(O)O)CC6)CSc6ccccc6)c(S(=O)(=O)C(F)(F)F)c5)cc4)CC3)c2)c(-c2ccc(Cl)cc2)n1C(C)C,IC50,second compound 0.1 µM,8.11 nM
same,IC50,second compound 0.316 µM,9.46 nM
same,IC50,second compound 1 µM,< 3.16 nM
same,IC50,second compound 3.16 µM,< 3.16 nM
same,IC50,second compound 10 µM,173 nM
same,"viability, T/C",[21],58.2%
same,"viability, T/C",[22],52.3%
same,"viability, T/C",[1],30.2%
same,"viability, T/C",[2],31.4%
same,"viability, T/C",[3],18%
same,"viability, T/C",[4],8.91%
same,"viability, T/C",[23],65.2%
same,"viability, T/C",[24],53.1%
same,"viability, T/C",[5],27.2%
same,"viability, T/C",[6],31.2%
same,"viability, T/C",[7],13.1%
same,"viability, T/C",[8],10.8%
same,"viability, T/C",[25],39.3%
same,"viability, T/C",[26],39.6%
same,"viability, T/C",[9],38.9%
same,"viability, T/C",[10],33.2%
same,"viability, T/C",[11],11%
same,"viability, T/C",[12],3.88%
same,"viability, T/C",[27],45.4%
same,"viability, T/C",[28],50.5%
same,"viability, T/C",[13],39.9%
same,"viability, T/C",[14],32%
same,"viability, T/C",[15],14%
same,"viability, T/C",[16],2.79%
same,"viability, T/C",[29],189%
same,"viability, T/C",[30],133%
same,"viability, T/C",[17],166%
same,"viability, T/C",[18],87.5%
same,"viability, T/C",[19],11.1%
same,"viability, T/C",[20],7%
NC(=O)C(=Cn1cnc(-c2cc(C(F)(F)F)cc(C(F)(F)F)c2)n1)c1cncnc1 + Cc1c(S(C)(=O)=O)c(-c2cc(F)cc(N3CCN(c4ccc(NS(=O)(=O)c5ccc(NC(CCN6CCC(C(=O)OCCCP(=O)(O)O)CC6)CSc6ccccc6)c(S(=O)(=O)C(F)(F)F)c5)cc4)CC3)c2)c(-c2ccc(Cl)cc2)n1C(C)C,IC50,second compound 0.1 µM,1.94 nM
same,IC50,second compound 0.316 µM,< 0.949 nM
same,IC50,second compound 1 µM,1.36 nM
same,IC50,second compound 3.16 µM,1.25 nM
same,IC50,second compound 10 µM,25.3 nM
same,"viability, T/C","second compound 0.1 µM, first compound 0.000949 µM",77.2%
same,"viability, T/C","second compound 0.1 µM, first compound 0.003 µM",33.3%
same,"viability, T/C","second compound 0.1 µM, first compound 0.00949 µM",28.4%
same,"viability, T/C","second compound 0.1 µM, first compound 0.03 µM",20.9%
same,"viability, T/C","second compound 0.1 µM, first compound 0.0949 µM",22.3%
same,"viability, T/C","second compound 0.1 µM, first compound 0.3 µM",28%
same,"viability, T/C","second compound 0.316 µM, first compound 0.000949 µM",44.5%
same,"viability, T/C","second compound 0.316 µM, first compound 0.003 µM",48%
same,"viability, T/C","second compound 0.316 µM, first compound 0.00949 µM",30%
same,"viability, T/C","second compound 0.316 µM, first compound 0.03 µM",23.2%
same,"viability, T/C","second compound 0.316 µM, first compound 0.0949 µM",17.2%
same,"viability, T/C","second compound 0.316 µM, first compound 0.3 µM",24.1%
same,"viability, T/C","second compound 1 µM, first compound 0.000949 µM",54.3%
same,"viability, T/C","second compound 1 µM, first compound 0.003 µM",40.5%
same,"viability, T/C","second compound 1 µM, first compound 0.00949 µM",21.4%
same,"viability, T/C","second compound 1 µM, first compound 0.03 µM",17.7%
same,"viability, T/C","second compound 1 µM, first compound 0.0949 µM",14.4%
same,"viability, T/C","second compound 1 µM, first compound 0.3 µM",14.8%
same,"viability, T/C","second compound 3.16 µM, first compound 0.000949 µM",53.2%
same,"viability, T/C","second compound 3.16 µM, first compound 0.003 µM",40%
same,"viability, T/C","second compound 3.16 µM, first compound 0.00949 µM",22.6%
same,"viability, T/C","second compound 3.16 µM, first compound 0.03 µM",13.5%
same,"viability, T/C","second compound 3.16 µM, first compound 0.0949 µM",9.75%
same,"viability, T/C","second compound 3.16 µM, first compound 0.3 µM",13.1%
same,"viability, T/C","second compound 10 µM, first compound 0.000949 µM",143%
same,"viability, T/C","second compound 10 µM, first compound 0.003 µM",106%
same,"viability, T/C","second compound 10 µM, first compound 0.00949 µM",91.4%
same,"viability, T/C","second compound 10 µM, first compound 0.03 µM",40.3%
same,"viability, T/C","second compound 10 µM, first compound 0.0949 µM",17.1%
same,"viability, T/C","second compound 10 µM, first compound 0.3 µM",10.8%
NC1CCC(NC2CC2c2ccccc2)CC1 (stereo not given) + Cc1c(S(C)(=O)=O)c(-c2cc(F)cc(N3CCN(c4ccc(NS(=O)(=O)c5ccc(NC(CCN6CCC(C(=O)OCCCP(=O)(O)O)CC6)CSc6ccccc6)c(S(=O)(=O)C(F)(F)F)c5)cc4)CC3)c2)c(-c2ccc(Cl)cc2)n1C(C)C,IC50,second compound 0.1 µM,2.46 nM
same,IC50,second compound 0.316 µM,< 0.316 nM
same,IC50,second compound 1 µM,< 0.316 nM
same,IC50,second compound 3.16 µM,< 0.316 nM
same,IC50,second compound 10 µM,22.1 nM
same,"viability, T/C","second compound 0.1 µM, first compound 0.000316 µM",58%
same,"viability, T/C","second compound 0.1 µM, first compound 0.001 µM",46.2%
same,"viability, T/C",[21],56.8%
same,"viability, T/C",[22],48.5%
same,"viability, T/C",[1],37.8%
same,"viability, T/C",[2],48.4%
same,"viability, T/C","second compound 0.316 µM, first compound 0.000316 µM",40.8%
same,"viability, T/C","second compound 0.316 µM, first compound 0.001 µM",36.3%
same,"viability, T/C",[23],47.8%
same,"viability, T/C",[24],38.4%
same,"viability, T/C",[5],46%
same,"viability, T/C",[6],49%
same,"viability, T/C","second compound 1 µM, first compound 0.000316 µM",27.9%
same,"viability, T/C","second compound 1 µM, first compound 0.001 µM",33.9%
same,"viability, T/C",[25],34.6%
same,"viability, T/C",[26],34.8%
same,"viability, T/C",[9],39.7%
same,"viability, T/C",[10],34.6%
same,"viability, T/C","second compound 3.16 µM, first compound 0.000316 µM",41.6%
same,"viability, T/C","second compound 3.16 µM, first compound 0.001 µM",32.8%
same,"viability, T/C",[27],25.4%
same,"viability, T/C",[28],26.5%
same,"viability, T/C",[13],30.7%
same,"viability, T/C",[14],33.9%
same,"viability, T/C","second compound 10 µM, first compound 0.000316 µM",58%
same,"viability, T/C","second compound 10 µM, first compound 0.001 µM",48.3%
same,"viability, T/C",[29],31.8%
same,"viability, T/C",[30],71.6%
same,"viability, T/C",[17],44.7%
same,"viability, T/C",[18],39.1%
